Holding throughout (type): cell-based
One assay concerns MCF7. The assay can be described thus: Cytotoxicity in MCF7 cells. Conditions: Homo sapiens, read-out: Cytotoxicity IC 50 in μM (Cell lines) MCF7. The method, then: (§1) Human cancer cell lines, K562, MCF7, HeLa and HEK 293T were purchased from National Centre for Cell Science, Pune, India. Cells were grown in RPMI 1640/MEM/DMEM supplemented with 10% heat-inactivated fetal bovine serum (FBS), 100 U/mL of Penicillin, and 100 μg of streptomycin/mL and incubated at 37° C. in a humidified atmosphere containing 5% CO2.
(§2) The human T cell leukemia cell line Molt4, Human acute lymphoblastic leukemia (ALL) cell line Nalm6, Human acute myelocytic leukemia (AML) cell line Reh, chronic myelogenous leukemia (CML) cell line K562, Human breast adenocarcinoma cell lines like MCF7 and human kidney cell line HEK 293T (Human embryonic kidney cell line) were selected for the purpose of preliminary anticancer screening of newly synthesized compounds (ASR1 to ASR15). To check the cytotoxicity, trypan blue dye exclusion assays, MTT assay were employed as described earlier Further, Cell cycle analysis, Mitochondrial membrane potential, Annexin-V FITC staining assay were also performed in order to understand the mode of cell death after treatment with ASR6. Further, ASR6 was also tested for its ability to inhibit topoisomerase I and II activity in vitro.
(§3) Cytotoxic effect of the newly synthesized compounds against leukemic cells was assessed using 3-(4, 5-dimethyl-2-yl02, 5-diphenyl tetrazolium bromide (MTT) assay. After exposure of compound at different concentration (0.01, 0.1, 0.5, 1, 10, 50 and 100 μM) cells were harvested and transferred into 96 well plate, MTT (5 mg/ml) was added and incubate at 37° C. for 4 h and formazan crystals were dissolved by adding solubilizing agent (10% SDS and 50% dimethyl formamide) for 1 h, finally plate was read at 570 nm (Bio-Rad, USA). Results were represented as inhibition of percentage of cell proliferation in bar diagram (n=3) (FIGS. 1 A, C, E and G).
(§4) To determine the growth inhibitory activity of the drug, 0.5×10^5 cell/ml were plated in 24 well (Biofil, USA.) in 1 ml of complete medium and treated with various concentration of the compound to test, cells were stained with 0.4% trypan blue and counted on a hemocytometer after treatment with compounds at 48 and 72 h time point. Results were represented as number of viable cells/ml in bar diagram (FIGS. 1 B, D, F, and H) (n=3).

A further assay has as its system K562. As to the kind of experiment: Cytotoxicity (MTT / trypan blue) in K562 cells. Particulars: Homo sapiens, read-out: Cytotoxicity IC 50 in μM (Cell lines) K562. The protocol: as §1, §2, §3, §4
For the next assay, the system named is Reh. The assay can be described thus: Cytotoxicity (MTT / trypan blue) in Reh cells. Particulars: Homo sapiens, read-out: Cytotoxicity IC 50 in μM (Cell lines) Reh. The method, then: as §1
(§5) Nalm6, Molt4 and Reh cells were provided by Dr. Sathees C. Raghavan, Department of Biochemistry, IISc, Bangalore. The cells were grown under the similar culture conditions as mentioned above.
as §2, §3, §4

A further assay deals with Nalm6. As to the kind of experiment: Cytotoxicity (MTT / trypan blue) in Nalm6 cells. Conditions: Homo sapiens, NALM-6, read-out: Cytotoxicity IC 50 in μM (Cell lines) Nalm6. The method, then: as §1, §5, §2, §3, §4
Another assay has as its system Molt4. The assay can be described thus: Cytotoxicity (MTT / trypan blue) in Molt4 cells. Particulars: Homo sapiens, MOLT-4, read-out: Cytotoxicity IC 50 in μM (Cell lines) Molt4. The method, then:
as §1, §5, §2, §3, §4

The next assay relates to HeLa. The assay can be described thus: Cytotoxicity in HeLa cells. Conditions: Homo sapiens, read-out: Cytotoxicity IC 50 in μM (Cell lines) HeLa. The method, then:
as §1
as §3, with “G). […]” for “G).”

Turning to `CCOC(=O)c1[nH]c(-c2cccs2)cc1-c1cccs1` [ASR8, Ethyl 3,5-di(thiophen-2-yl)-1H-pyrrole-2-carboxylate], the IC50 in the assay with MCF7 was above 100 µM; in the assay on K562, above 100 µM; in the assay on Reh, above 100 µM; in the assay on Nalm6, above 50 µM; with Molt4, 35.3 µM; in the assay on HeLa, above 100 µM.
Turning to `CCOC(=O)c1[nH]c(-c2ccc(Cl)cc2)cc1-c1ccc2ccccc2c1` [ASR7, Ethyl 5-(4-chlorophenyl)-3-(naphthalen-2-yl)-1H-pyrrole-2-carboxylate], the IC50 in the assay on MCF7 was above 100 µM; with K562, above 100 µM; in the assay with Reh, above 100 µM; in the assay on Nalm6 it was above 50 µM; in the assay with Molt4 it was 30.8 µM; in the assay on HeLa, above 100 µM.
Consider `CCOC(=O)c1[nH]c(-c2ccc(OC)cc2)cc1-c1cccc(C)c1` [ASR2, Ethyl 5-(4-methoxyphenyl)-3-m-tolyl-1H-pyrrole-2-carboxylate], for which the IC50 was above 100 µM with MCF7; above 100 µM in the assay with K562; above 100 µM in the assay on Reh; above 50 µM with Nalm6; above 50 µM in the assay on Molt4; above 100 µM with HeLa.
For the molecule `COC(=O)c1[nH]c(-c2ccc(C)cc2)cc1-c1cccc([N+](=O)[O-])c1` [ASR13, Methyl 3-(3-nitrophenyl)-5-p-tolyl-1H-pyrrole-2-carboxylate], the IC50 in the assay with MCF7 was above 100 µM; in the assay with K562, above 100 µM; in the assay on Reh, above 100 µM; with Nalm6, 11 µM; in the assay on Molt4, 8.84 µM; with HeLa, above 100 µM.
For the molecule `CCOC(=O)c1[nH]c(-c2cccc(OC)c2)cc1-c1ccncc1` [ASR15, Ethyl 5-(3-methoxyphenyl)-3-(pyridin-4-yl)-1H-pyrrole-2-carboxylate], the IC50 in the assay on MCF7 is above 100 µM; in the assay on K562, above 100 µM; in the assay on Reh, above 100 µM; with Nalm6, 5.4 µM; in the assay on Molt4, 12.9 µM; in the assay on HeLa, above 100 µM.
For `CCOC(=O)c1[nH]c(-c2ccc(OC)cc2)cc1-c1ccco1` [ASR3, Ethyl 3-(furan-2-yl)-5-(4-methoxyphenyl)-1H-pyrrole-2-carboxylate], the IC50 is above 100 µM with MCF7; above 100 µM in the assay with K562; above 100 µM in the assay with Reh; above 50 µM in the assay on Nalm6; above 50 µM with Molt4; above 100 µM in the assay on HeLa.
In the case of `CCOC(=O)c1[nH]c(-c2ccc(OC)c(OC)c2)cc1-c1ccncc1` [ASR12, Ethyl 5-(3,4-dimethoxyphenyl)-3-(pyridin-4-yl)-1H-pyrrole-2-carboxylate], the IC50 in the assay with MCF7 is above 100 µM; in the assay on K562, above 100 µM; with Reh it was above 100 µM; in the assay with Nalm6 it was 14.3 µM; in the assay with Molt4, 26.1 µM; with HeLa, above 100 µM.
For `CCOC(=O)c1[nH]c(-c2ccc(OC)c(OC)c2)cc1-c1ccc(C(F)(F)F)cc1` [ASR10, Ethyl 5-(3,4-dimethoxyphenyl)-3-(4-(trifluoromethyl)phenyl)-1H-pyrrole-2-carboxylate], the IC50 with MCF7 is above 100 µM; in the assay on K562 it was above 100 µM; in the assay with Reh, above 100 µM; in the assay on Nalm6 it was 20 µM; with Molt4 it was 7.96 µM; in the assay on HeLa, above 100 µM.
Take `CCOC(=O)c1[nH]c(-c2ccc(C)cc2)cc1-c1cccc([N+](=O)[O-])c1` [ASR4, Ethyl 3-(3-nitrophenyl)-5-p-tolyl-1H-pyrrole-2-carboxylate]: the IC50 in the assay on MCF7 was above 100 µM; in the assay on K562, above 100 µM; in the assay on Reh it was above 100 µM; in the assay with Nalm6, above 50 µM; in the assay on Molt4, above 50 µM; in the assay with HeLa, above 100 µM.
With `COC(=O)c1[nH]c(-c2cccc(OC)c2)cc1-c1ccc(C(F)(F)F)cc1` [ASR11, Methyl 5-(3-methoxyphenyl)-3-(4-(trifluoromethyl)phenyl)-1H-pyrrole-2-carboxylate], the IC50 in the assay on MCF7 is above 100 µM; with K562, above 100 µM; in the assay with Reh it was above 100 µM; in the assay on Nalm6, 9.53 µM; in the assay on Molt4, 17 µM; in the assay with HeLa, above 100 µM.
For the molecule `CCOC(=O)c1[nH]c(-c2cc(OC)c(OC)c(OC)c2)cc1-c1cccs1` [ASR14, Ethyl 3-(thiophen-2-yl)-5-(3,4,5-trimethoxyphenyl)-1H-pyrrole-2-carboxylate], the IC50 in the assay with MCF7 was above 100 µM; in the assay with K562, above 100 µM; in the assay with Reh it was above 100 µM; in the assay with Nalm6, 10.5 µM; with Molt4, 15.2 µM; in the assay on HeLa, above 100 µM.
As to `CCOC(=O)c1[nH]c(-c2ccc(C)cc2)cc1-c1ccc(C#N)cc1` [ASR5, Ethyl 3-(4-cyanophenyl)-5-p-tolyl-1H-pyrrole-2-carboxylate], the IC50 was above 100 µM with MCF7; above 100 µM in the assay with K562; above 100 µM in the assay on Reh; above 50 µM with Nalm6; above 50 µM in the assay on Molt4; above 100 µM in the assay with HeLa.
As to `CCOC(=O)c1[nH]c(-c2ccccc2)cc1-c1ccccc1` [ASR1, Ethyl 3,5-diphenyl-1H-pyrrole-2-carboxylate], the IC50 in the assay on MCF7 is above 100 µM; with K562, above 100 µM; in the assay on Reh it was above 100 µM; in the assay on Nalm6, above 50 µM; with Molt4, above 50 µM; in the assay on HeLa it was above 100 µM.
As to `CCOC(=O)c1[nH]c(-c2cccs2)cc1-c1ccc(Br)cc1` [ASR9, Ethyl 3-(4-bromophenyl)-5-(thiophen-2-yl)-1H-pyrrole-2-carboxylate], the IC50 in the assay with MCF7 was above 100 µM; with K562, above 100 µM; with Reh, above 100 µM; in the assay with Nalm6 it was above 50 µM; in the assay with Molt4 it was 50 µM; in the assay with HeLa it was above 100 µM.

These data come from patent US20180251425A1, “2,3,5 TRISUBSTITUTED PYRROLE DERIVATIVES AS TOPOISOMERASE INHIBITORS AND THERAPEUTIC USES THEREOF” (UNIVERSITY OF MYSORE, priority 2015, published 2018).
